Measurements taken from PubChem BioAssay AID1918948 (Molecular Pharmacology Branch, DTP, NCI, 2023).

System: K-562 leukemia growth, % test/control
Assay: Anticancer human tumor K-562 cell line growth inhibition;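 also: spheroids exposed to compounds for 7 days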;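 as to viability, T/C: 100% = DMSO vehicle wells and lower values mean fewer viable cells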
Conditions: spheroids with HUVEC and MSC; for IC50: curve of first compound; for viability, T/C: stronger effect = lower value; active = viability on the fitted dose curve at most 10% of control; inactive = the rest
Outline: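 Multicellular complex spheroids of tumor cells with human endothelial cells (HUVEC) and mesenchymal stem cells; the LSD1 inhibitor iadademstat was combined with standard-of-care or investigational agents. Top concentration at or near clinical Cmax, half-log dilutions; final DMSO ≤0.25%.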

[1] = second compound 0.1 µM, first compound 0.0316 µM
[2] = second compound 0.1 µM, first compound 0.1 µM
[3] = second compound 0.316 µM, first compound 0.0316 µM
[4] = second compound 0.316 µM, first compound 0.1 µM
[5] = second compound 1 µM, first compound 0.0316 µM
[6] = second compound 1 µM, first compound 0.1 µM
[7] = second compound 3.16 µM, first compound 0.0316 µM
[8] = second compound 3.16 µM, first compound 0.1 µM
[9] = second compound 10 µM, first compound 0.0316 µM
[10] = second compound 10 µM, first compound 0.1 µM

CC(C)CC(NC(=O)C(Cc1ccccc1)NC(=O)c1cnccn1)B(O)O (stereo not given) + NC1CCC(NC2CC2c2ccccc2)CC1
0.977 nM: IC50 (second compound 10 µM)
1.94 nM: IC50 (second compound 0.316 µM)
1.95 nM: IC50 (second compound 1 µM)
1.77 nM: IC50 (second compound 3.16 µM)
active: viability, T/C (second compound 0.1 µM, first compound 0.01 µM) 2.14% | viability, T/C [1] 1.84% | viability, T/C [2] 0.67% | viability, T/C (second compound 0.316 µM, first compound 0.01 µM) 2.31% | viability, T/C [3] 0.86% | viability, T/C [4] 2.09% | viability, T/C (second compound 1 µM, first compound 0.01 µM) 1.19% | viability, T/C [5] 1.68% | viability, T/C [6] 1.1% | viability, T/C (second compound 3.16 µM, first compound 0.01 µM) 1.18% | viability, T/C [7] 2.66% | viability, T/C [8] 0.99% | viability, T/C (second compound 10 µM, first compound 0.00316 µM) 9.37% | viability, T/C (second compound 10 µM, first compound 0.01 µM) 1.01% | viability, T/C [9] 0.67% | viability, T/C [10] 1.77%
1.9 nM: IC50 (second compound 0.1 µM)
inactive: viability, T/C (second compound 0.1 µM, first compound 0.000316 µM) 99% | viability, T/C (second compound 0.1 µM, first compound 0.001 µM) 101% | viability, T/C (second compound 0.1 µM, first compound 0.00316 µM) 10.2% | viability, T/C (second compound 0.316 µM, first compound 0.000316 µM) 99.3% | viability, T/C (second compound 0.316 µM, first compound 0.001 µM) 102% | viability, T/C (second compound 0.316 µM, first compound 0.00316 µM) 12.7% | viability, T/C (second compound 1 µM, first compound 0.000316 µM) 104% | viability, T/C (second compound 1 µM, first compound 0.001 µM) 101% | viability, T/C (second compound 1 µM, first compound 0.00316 µM) 13.5% | viability, T/C (second compound 3.16 µM, first compound 0.000316 µM) 105% | viability, T/C (second compound 3.16 µM, first compound 0.001 µM) 87.8% | viability, T/C (second compound 3.16 µM, first compound 0.00316 µM) 11.7% | viability, T/C (second compound 10 µM, first compound 0.000316 µM) 97.1% | viability, T/C (second compound 10 µM, first compound 0.001 µM) 49%

Nc1ccccc1NC(=O)c1ccc(CNC(=O)OCc2cccnc2)cc1 + NC1CCC(NC2CC2c2ccccc2)CC1
225 nM: IC50 (second compound 3.16 µM)
active: viability, T/C (second compound 0.1 µM, first compound 0.949 µM) 3.36% | viability, T/C (second compound 0.1 µM, first compound 3 µM) 0.18% | viability, T/C (second compound 0.316 µM, first compound 0.949 µM) 3.47% | viability, T/C (second compound 0.316 µM, first compound 3 µM) 0.16% | viability, T/C (second compound 1 µM, first compound 0.949 µM) 3.81% | viability, T/C (second compound 1 µM, first compound 3 µM) 0.17% | viability, T/C (second compound 3.16 µM, first compound 0.949 µM) 4.43% | viability, T/C (second compound 3.16 µM, first compound 3 µM) 1.18% | viability, T/C (second compound 10 µM, first compound 0.949 µM) 2.97% | viability, T/C (second compound 10 µM, first compound 3 µM) 0.24%
280 nM: IC50 (second compound 1 µM)
inactive: viability, T/C (second compound 0.1 µM, first compound 0.00949 µM) 106% | viability, T/C (second compound 0.1 µM, first compound 0.03 µM) 106% | viability, T/C (second compound 0.1 µM, first compound 0.0949 µM) 103% | viability, T/C (second compound 0.1 µM, first compound 0.3 µM) 45.5% | viability, T/C (second compound 0.316 µM, first compound 0.00949 µM) 107% | viability, T/C (second compound 0.316 µM, first compound 0.03 µM) 105% | viability, T/C (second compound 0.316 µM, first compound 0.0949 µM) 103% | viability, T/C (second compound 0.316 µM, first compound 0.3 µM) 53.5% | viability, T/C (second compound 1 µM, first compound 0.00949 µM) 106% | viability, T/C (second compound 1 µM, first compound 0.03 µM) 107% | viability, T/C (second compound 1 µM, first compound 0.0949 µM) 100% | viability, T/C (second compound 1 µM, first compound 0.3 µM) 46.9% | viability, T/C (second compound 3.16 µM, first compound 0.00949 µM) 105% | viability, T/C (second compound 3.16 µM, first compound 0.03 µM) 107% | viability, T/C (second compound 3.16 µM, first compound 0.0949 µM) 93.2% | viability, T/C (second compound 3.16 µM, first compound 0.3 µM) 35.6% | viability, T/C (second compound 10 µM, first compound 0.00949 µM) 92.5% | viability, T/C (second compound 10 µM, first compound 0.03 µM) 83.8% | viability, T/C (second compound 10 µM, first compound 0.0949 µM) 39.9% | viability, T/C (second compound 10 µM, first compound 0.3 µM) 14.1%
325 nM: IC50 (second compound 0.316 µM)
75.5 nM: IC50 (second compound 10 µM)
274 nM: IC50 (second compound 0.1 µM)

O=C(c1cc(Cc2n[nH]c(=O)c3ccccc23)ccc1F)N1CCN(C(=O)C2CC2)CC1 + NC1CCC(NC2CC2c2ccccc2)CC1
> 10000 nM: IC50 (second compound 0.1 µM) | IC50 (second compound 0.316 µM) | IC50 (second compound 1 µM) | IC50 (second compound 3.16 µM) | IC50 (second compound 10 µM)
inactive: viability, T/C [1] 98.2% | viability, T/C [2] 97.4% | viability, T/C (second compound 0.1 µM, first compound 0.316 µM) 96% | viability, T/C (second compound 0.1 µM, first compound 1 µM) 94.2% | viability, T/C (second compound 0.1 µM, first compound 3.16 µM) 82.7% | viability, T/C (second compound 0.1 µM, first compound 10 µM) 51.2% | viability, T/C [3] 101% | viability, T/C [4] 99.6% | viability, T/C (second compound 0.316 µM, first compound 0.316 µM) 98.6% | viability, T/C (second compound 0.316 µM, first compound 1 µM) 95% | viability, T/C (second compound 0.316 µM, first compound 3.16 µM) 83.2% | viability, T/C (second compound 0.316 µM, first compound 10 µM) 51.2% | viability, T/C [5] 99.4% | viability, T/C [6] 100% | viability, T/C (second compound 1 µM, first compound 0.316 µM) 98.3% | viability, T/C (second compound 1 µM, first compound 1 µM) 94.4% | viability, T/C (second compound 1 µM, first compound 3.16 µM) 85.6% | viability, T/C (second compound 1 µM, first compound 10 µM) 53.1% | viability, T/C [7] 102% | viability, T/C [8] 101% | viability, T/C (second compound 3.16 µM, first compound 0.316 µM) 98.2% | viability, T/C (second compound 3.16 µM, first compound 1 µM) 95% | viability, T/C (second compound 3.16 µM, first compound 3.16 µM) 84.8% | viability, T/C (second compound 3.16 µM, first compound 10 µM) 54.4% | viability, T/C [9] 95.4% | viability, T/C [10] 98.8% | viability, T/C (second compound 10 µM, first compound 0.316 µM) 98.5% | viability, T/C (second compound 10 µM, first compound 1 µM) 92.2% | viability, T/C (second compound 10 µM, first compound 3.16 µM) 81% | viability, T/C (second compound 10 µM, first compound 10 µM) 53.3%
